Data as given in ChEMBL document CHEMBL4346735, “Discovery and pharmacological evaluation of indole derivatives as potent and selective RORγt inverse agonist for multiple autoimmune conditions” (Bioorg Med Chem Lett, 2019).
Active and inactive are the calls of the source. No cut-off for these calls is given here.

Key:
[1] = molecular target: T1, Nuclear receptor ROR-gamma (Homo sapiens) (UniProt P51449); assay: Transactivation of recombinant GAL4-DBD fused RORgammat LBD (unknown origin) expressed in HEK293T cells at 1 uM incubated for 18 to 24 hrs by dual-Glo luciferase assay relative to control; assay type: cell-based
T1 sequence (whole entry): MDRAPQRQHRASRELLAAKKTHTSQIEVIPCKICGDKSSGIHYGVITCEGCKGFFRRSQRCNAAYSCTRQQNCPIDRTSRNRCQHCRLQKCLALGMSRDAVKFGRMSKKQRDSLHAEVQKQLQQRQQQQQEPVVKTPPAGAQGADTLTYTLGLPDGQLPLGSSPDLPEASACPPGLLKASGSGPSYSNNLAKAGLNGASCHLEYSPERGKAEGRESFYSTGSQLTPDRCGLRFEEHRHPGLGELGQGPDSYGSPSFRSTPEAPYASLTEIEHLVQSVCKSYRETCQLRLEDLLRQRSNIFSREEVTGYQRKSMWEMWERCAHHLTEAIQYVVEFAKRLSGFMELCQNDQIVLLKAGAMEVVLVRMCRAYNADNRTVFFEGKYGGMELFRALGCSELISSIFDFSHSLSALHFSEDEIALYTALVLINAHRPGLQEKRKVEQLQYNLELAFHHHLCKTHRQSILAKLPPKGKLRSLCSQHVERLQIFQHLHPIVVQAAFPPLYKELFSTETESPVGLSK

[2] = Metabolic stability in mouse liver microsomes assessed as parent compound remaining at 1 uM preincubated for 5 mins followed by NADPH addition after 30 mins by LC-MS/MS analysis; assay type: ADME, Microsome; settings: read-out: Stability
[3] = molecular target: T2, Nuclear receptor ROR-gamma (Homo sapiens, UniProt P51449); assay: Inverse agonist activity at GST-tagged RORgammat LBD (unknown origin) using fluorescein-D22 co-activator peptide as substrate incubated for 1 hr by TR-FRET assay
T2 sequence (P51449 whole entry): T1 sequence (whole entry)

[4] = molecular target: T2, Nuclear receptor ROR-gamma; assay: Transactivation of recombinant GAL4-DBD fused RORgammat LBD (unknown origin) expressed in HEK293T cells incubated for 18 to 24 hrs by dual-Glo luciferase assay; assay type: cell-based
[5] = Drug metabolism in mouse liver microsomes assessed as oxidation metabolic rate at 1 uM preincubated for 5 mins followed by NADPH addition after 30 mins by LC-MS/MS analysis; assay type: ADME, Microsome; settings: 0.5 h
[6] = Drug metabolism in rat liver microsomes assessed as oxidation metabolic rate at 1 uM preincubated for 5 mins followed by NADPH addition after 30 mins by LC-MS/MS analysis; assay type: ADME, Microsome; settings: 0.5 h
[7] = Drug metabolism in human pooled liver microsomes assessed as oxidation metabolic rate at 1 uM preincubated for 5 mins followed by NADPH addition after 30 mins by LC-MS/MS analysis; assay type: ADME, Microsome; settings: 0.5 h
[8] = AUC (0 to t) in Balb/c mouse at 3 mg/kg, iv administered as single dose by LC-MS/MS analysis; assay type: ADME, organism-based; settings: in vivo
[9] = Clearance in Balb/c mouse at 3 mg/kg, iv administered as single dose by LC-MS/MS analysis; assay type: ADME, organism-based; settings: in vivo
[10] = Half life in Balb/c mouse at 3 mg/kg, iv administered as single dose by LC-MS/MS analysis; assay type: ADME, organism-based; settings: in vivo
[11] = Oral bioavailability in Balb/c mouse at 10 mg/kg administered via gavage by LC-MS/MS analysis; assay type: ADME, organism-based; settings: in vivo
[12] = Metabolic stability in rat hepatocytes assessed as parent compound remaining after 30 mins; assay type: ADME, cell-based, Hepatocyte; settings: read-out: Stability
[13] = test system: Mus musculus; assay: Protection against imiquimod-induced skin inflammation in BALB/c mouse psoriasis model assessed as decrease in ear thickness administered topically at 25 mg qd treated for 1 hr before IMQ application measured at day 5; assay type: functional, organism-based
[14] = test system: Mus musculus; assay: Protection against imiquimod-induced skin inflammation in BALB/c mouse psoriasis model assessed as decrease in scaling administered topically at 25 mg qd treated for 1 hr before IMQ application measured at day 5; assay type: functional, organism-based
[15] = AUC (0 to 24 hrs) in Balb/c mouse at 3 mg/kg, iv; assay type: ADME, organism-based; parameters: time < 24 hr, dose 3 mg/kg, route intravenous; settings: in vivo
[16] = AUC (0 to infinity) in Balb/c mouse at 3 mg/kg, iv; assay type: ADME, organism-based; parameters: dose 3 mg/kg, route intravenous, time infinity; settings: in vivo
[17] = Volume of distribution at steady state in Balb/c mouse at 3 mg/kg, iv; assay type: ADME, organism-based; settings: in vivo, read-out: Vdss
[18] = Clearance in Balb/c mouse at 3 mg/kg, iv; assay type: ADME, organism-based; settings: in vivo
[19] = Half life in Balb/c mouse at 3 mg/kg, iv; assay type: ADME, organism-based; settings: in vivo
[20] = Cmax in Balb/c mouse at 10 mg/kg, po; assay type: ADME, organism-based; parameters: dose 10 mg/kg, route oral; settings: in vivo
[21] = Tmax in Balb/c mouse at 10 mg/kg, po; assay type: ADME, organism-based; settings: in vivo
[22] = AUC (0 to 24 hrs) in Balb/c mouse at 10 mg/kg, po; assay type: ADME, organism-based; parameters: time < 24 hr, dose 10 mg/kg, route oral; settings: in vivo
[23] = AUC (0 to infinity) in Balb/c mouse at 10 mg/kg, po; assay type: ADME, organism-based; parameters: dose 10 mg/kg, time infinity, route oral; settings: in vivo
[24] = Half life in Balb/c mouse at 10 mg/kg, po; assay type: ADME, organism-based; settings: in vivo
[25] = Oral bioavailability in Balb/c mouse at 10mg/kg; assay type: ADME, organism-based; settings: in vivo
[26] = AUC (0 to 24 hrs) in Sprague-Dawley rat at 3 mg/kg, iv administered as single dose measured up to 24 hrs by LC-MS/MS analysis; assay type: ADME, organism-based; parameters: time < 24 hr, dose 3 mg/kg, route intravenous; settings: in vivo
[27] = AUC (0 to infinity) in Sprague-Dawley rat at 3 mg/kg, iv administered as single dose measured up to 24 hrs by LC-MS/MS analysis; assay type: ADME, organism-based; parameters: dose 3 mg/kg, time infinity, route intravenous; settings: in vivo
[28] = Volume of distribution at steady state in Sprague-Dawley rat at 3 mg/kg, iv administered as single dose measured up to 24 hrs by LC-MS/MS analysis; assay type: ADME, organism-based; settings: in vivo, read-out: Vdss
[29] = Clearance in Sprague-Dawley rat at 3 mg/kg, iv administered as single dose measured up to 24 hrs by LC-MS/MS analysis; assay type: ADME, organism-based; settings: in vivo
[30] = Half life in Sprague-Dawley rat at 3 mg/kg, iv administered as single dose measured up to 24 hrs by LC-MS/MS analysis; assay type: ADME, organism-based; settings: in vivo
[31] = Cmax in Sprague-Dawley rat at 10 mg/kg, po via gavage measured up to 24 hrs by LC-MS/MS analysis; assay type: ADME, organism-based; parameters: dose 10 mg/kg, route oral; settings: in vivo
[32] = Tmax in Sprague-Dawley rat at 10 mg/kg, po via gavage measured up to 24 hrs by LC-MS/MS analysis; assay type: ADME, organism-based; settings: in vivo
[33] = AUC (0 to 24 hrs) in Sprague-Dawley rat at 10 mg/kg, po via gavage measured up to 24 hrs by LC-MS/MS analysis; assay type: ADME, organism-based; parameters: time < 24 hr, dose 10 mg/kg, route oral; settings: in vivo
[34] = AUC (0 to infinity) in Sprague-Dawley rat at 10 mg/kg, po via gavage measured up to 24 hrs by LC-MS/MS analysis; assay type: ADME, organism-based; parameters: dose 10 mg/kg, time infinity, route oral; settings: in vivo
[35] = Half life in Sprague-Dawley rat at 10 mg/kg, po via gavage measured up to 24 hrs by LC-MS/MS analysis; assay type: ADME, organism-based; settings: in vivo
[36] = Oral bioavailability in Sprague-Dawley rat at 10mg/kg via gavage measured up to 24 hrs by LC-MS/MS analysis; assay type: ADME, organism-based; settings: in vivo
[37] = molecular target: T1, Nuclear receptor ROR-gamma (Homo sapiens); assay: Transactivation of recombinant GAL4-DBD fused RORgammat LBD (unknown origin) expressed in HEK293T cells at 10 uM incubated for 18 to 24 hrs by dual-Glo luciferase assay relative to control; assay type: cell-based
[38] = Metabolic stability in rat liver microsomes assessed as parent compound remaining at 1 uM preincubated for 5 mins followed by NADPH addition after 30 mins by LC-MS/MS analysis; assay type: ADME, Microsome; settings: read-out: Stability
[39] = Metabolic stability in human liver microsomes assessed as parent compound remaining at 1 uM preincubated for 5 mins followed by NADPH addition after 30 mins by LC-MS/MS analysis; assay type: ADME, Microsome; settings: read-out: Stability

With `O=C(O)c1ccc(-n2cc(C(=O)c3c(Cl)cccc3Cl)c3ccncc32)cc1` the inhibition [1] was 27% and the remaining at 0.5 h, 1 µM [2] was 100%.

Work on `O=C(O)c1ccc(-n2nc(C(=O)c3c(Cl)cccc3Cl)c3ccccc32)cc1` yielded an IC50 [3] of 3.8 nM, an IC50 [4] of 29 nM and a Drug metabolism [5] of less than 0.04 nmol/min/mg. The Drug metabolism [6] was 0.18 nmol/min/mg, the Drug metabolism [7] was 0.07 nmol/min/mg and the AUC(0-t) [8] was 5.9 µM·h. It also gave a clearance [9] of 19.6 mL/min/kg, a half-life [10] of 1.4 h and a bioavailability [11] of 29%. For the same compound, the remaining at 0.5 h [12] was 17%.

In the case of `C[C@H]1C[C@H]2[C@@H]3CCC4=CC(=O)C=C[C@]4(C)[C@@]3(F)[C@@H](O)C[C@]2(C)[C@@]1(O)C(=O)CO`, the Activity [13] is reported as “Active” and the Activity [14] is reported as “Active”.

In the case of `O=C([O-])c1ccc(-n2cc(C(=O)c3c(Cl)cccc3Cl)c3cccc(F)c32)cc1.[Na+]`, the AUC(0-t) at 24 h [15] is reported as 4.2 µM·h, the AUC(0-inf) [16] is reported as 4.6 µM·h and the Vd [17] is reported as 4.3 L/kg. For the same compound, the clearance [18] was 25.2 mL/min/kg, the half-life [19] was 2.7 h and the Cmax [20] was 7 µM. For the same compound, the Tmax [21] was 0.5 h, the AUC(0-t) at 24 h [22] was 12.6 µM·h and the AUC(0-inf) [23] was 12.7 µM·h. For the same compound, the half-life [24] was 3.5 h, the bioavailability [25] was 91% and the AUC(0-t) at 24 h [26] was 3.69 µM·h. The AUC(0-inf) [27] was 4.11 µM·h, the Vd [28] was 4.32 L/kg and the clearance [29] was 28.9 mL/min/kg. It also gave a half-life [30] of 3.47 h, a Cmax [31] of 3 µM and a Tmax [32] of 0.5 h. The AUC(0-t) at 24 h [33] was 6.7 µM·h, the AUC(0-inf) [34] was 7.59 µM·h and the half-life [35] was 2.54 h. For the same compound, the bioavailability [36] was 50%.

`O=C(O)c1ccc(-n2cc(C(=O)c3c(Cl)cccc3Cl)c3ncccc32)cc1` gave an inhibition [37] of 3%, a remaining at 0.5 h, 1 µM [2] of 100% and a remaining at 0.5 h, 1 µM [38] of 96%. The remaining at 0.5 h, 1 µM [39] was 94%.
